From patent publication US12162836B2, “N-acyl-{4-[(4-aryl-phenyl)sulfonylmethyl]piperidine} compounds and their therapeutic use” (Modern Biosciences Limited, priority 2019, dated 2024)

Experiments:
CYP2D6 = CYP2D6 (Homo sapiens (Human), UniProt P10635); experiment: Human Cytochrome P450 Inhibition Assay (Bactosomes); format: in vitro ADME; settings: recombinant Bactosomes, 10 minutes
Description: (§1) The ability of test compounds to inhibit five of the most relevant cytochrome P450 enzymes was measured by determination of the activity of cytochrome P450 enzymes in recombinant cytochrome preparations, called Bactosomes (Cypex Ltd, Dundee, Scotland UK DD2 1 NH), in the presence of a specific probe substrate. Bactosomes are a highly efficient and cost-effective source of recombinant CYP450s which have a higher specific activity of enzyme compared to other sources, such as liver microsomes. […] The following CYP450 isoforms were assayed: CYP1A2, CYP2C9, CYP2C19, CYP2D6 and CYP3A4. The study of CYP450 inhibition potential in Bactosomes is accepted as a valuable model permitting rapid prediction of potential drug-drug interactions in vivo (see, e.g., Weaver et al., 2003).
(§2) Bactosomes were obtained from a commercial source (Cypex, Scotland, UK). Test compounds were incubated with Bactosomes at 6 concentrations. Samples were incubated for 10 minutes, after which the reaction was stopped and the samples analysed by LC-MS/MS Multiple Reaction Monitoring (MRM) for the presence/amount of substrate probe.
(§3) CYP450 enzymes (final protein 75 pmol/mL for CYP1A2; 12.5 pmol/mL for CYP2C19; and 25 pmol/mL for CYP2C9, 2D6 and 3A4), 0.1 M phosphate buffer pH 7.4, probe and test compound (final concentration 50, 15.8, 5, 1.58, 0.5 and 0.158 μM; diluted from 10 mM stock solution to give a final DMSO concentration of 1%) were pre-incubated at 37° C. for 5 minutes. The reaction was initiated by the addition of 20 μL of 10 mM NADPH in phosphate buffer. The final incubation volume was 200 μL. The following control inhibitors were used for each CYP450 inhibition assay: CYP1A2: α-naphthoflavone; CYP2C9: sulfaphenazole; CYP2C19: tranylcypromine; CYP2D6: quinidine; CYP3A4: ketoconazole.
(§4) Each compound was incubated for 10 minutes at 37° C. The reactions were stopped by the addition of methanol (final composition 1:1, aqueous: methanol). The incubation plates were shaken, chilled at […] for 2 hours, and centrifuged at 3500 rpm for 15 minutes at 4° C. to precipitate the protein.

CYP2C9 = CYP2C9 (Homo sapiens (Human), UniProt P11712); experiment: as above; format: in vitro ADME; settings: recombinant Bactosomes, 10 minutes
Description: as §1, §2, §3, §4

CYP1A2 = CYP1A2 (Homo sapiens (Human), UniProt P05177); experiment: as above; format: in vitro ADME; settings: recombinant enzyme
Description: as §1, §2, §3, §4

CYP2C19 = CYP2C19 (Homo sapiens (Human), UniProt P33261); experiment: as above; format: in vitro ADME; settings: recombinant Bactosomes, 10 minutes
Description: as §1, §2, §3, §4

CYP3A4 = CYP3A4 (Homo sapiens (Human), UniProt P08684); experiment: as above; format: in vitro ADME; settings: recombinant Bactosomes, 10 minutes
Description: as §1, §2, §3, §4

hERG = hERG (Homo sapiens (Human), UniProt Q12809); experiment: hERG Ion Channel binding assay (3H astemizole displacement); settings: human, membranes of HEK293 cells stably expressing hERG, pH 7.4, probe 3H astemizole (1.5 nM); 30 μM; displacement of 3H astemizole, hERG-HEK293 membranes
In short: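 Membranes from stably transfected hERG-HEK293 cells incubated with 1.5 nM ³H-astemizole ± test compound in HEPES buffer pH 7.4 (0.1% BSA, 5 mM KCl, 130 mM NaCl) at 25° C for 60 min. Bound ligand measured by filtration and scintillation counting; reported as % displacement (0% none, 100% complete).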

[1] = Human Hepatocyte Stability; format: in vitro ADME; settings: pooled human hepatocytes, 1 μM, 60 minute incubation; for half-life at 1 μM: read-out: Human t1/2
In short: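 Compounds at 1 μM final (0.1% DMSO, 0.9% acetonitrile) were incubated with pooled human hepatocytes at 37 °C in duplicate and sampled at 0–60 min. Samples were quenched in methanol with tolbutamide and analysed by LC-MS/MS. k came from the ln(concentration)–time slope, giving t1/2 and Clint normalised to hepatocyte concentration.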

CYP2D6, sequence (P10635 whole entry, canonical isoform): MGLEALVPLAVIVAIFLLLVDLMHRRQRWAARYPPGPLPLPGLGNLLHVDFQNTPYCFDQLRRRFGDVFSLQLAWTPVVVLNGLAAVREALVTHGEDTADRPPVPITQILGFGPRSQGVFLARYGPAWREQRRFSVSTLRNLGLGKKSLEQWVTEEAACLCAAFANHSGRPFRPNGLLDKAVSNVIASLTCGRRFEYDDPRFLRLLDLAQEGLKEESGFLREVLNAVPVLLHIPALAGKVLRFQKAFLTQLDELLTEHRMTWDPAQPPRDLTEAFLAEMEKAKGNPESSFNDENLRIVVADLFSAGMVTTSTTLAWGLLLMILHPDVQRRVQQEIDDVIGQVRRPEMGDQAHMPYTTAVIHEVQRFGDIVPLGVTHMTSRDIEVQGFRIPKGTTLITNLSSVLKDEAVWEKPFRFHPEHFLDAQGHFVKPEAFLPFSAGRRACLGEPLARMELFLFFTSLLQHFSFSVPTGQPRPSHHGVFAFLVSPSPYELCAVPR
CYP1A2, sequence (P05177 whole entry): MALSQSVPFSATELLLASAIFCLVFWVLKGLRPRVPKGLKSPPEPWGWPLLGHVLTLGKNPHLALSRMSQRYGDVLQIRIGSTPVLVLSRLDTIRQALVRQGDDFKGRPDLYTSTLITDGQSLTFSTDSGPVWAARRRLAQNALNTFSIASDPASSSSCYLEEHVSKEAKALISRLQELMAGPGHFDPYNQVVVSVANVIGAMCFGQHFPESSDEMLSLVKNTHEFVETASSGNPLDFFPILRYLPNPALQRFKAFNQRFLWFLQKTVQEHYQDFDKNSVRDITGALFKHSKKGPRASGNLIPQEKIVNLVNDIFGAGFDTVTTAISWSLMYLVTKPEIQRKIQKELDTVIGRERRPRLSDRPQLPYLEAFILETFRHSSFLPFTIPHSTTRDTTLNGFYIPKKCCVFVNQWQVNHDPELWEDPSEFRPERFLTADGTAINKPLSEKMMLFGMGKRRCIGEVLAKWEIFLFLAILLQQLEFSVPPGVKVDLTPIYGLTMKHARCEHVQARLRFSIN
CYP2C19, sequence (P33261 whole entry): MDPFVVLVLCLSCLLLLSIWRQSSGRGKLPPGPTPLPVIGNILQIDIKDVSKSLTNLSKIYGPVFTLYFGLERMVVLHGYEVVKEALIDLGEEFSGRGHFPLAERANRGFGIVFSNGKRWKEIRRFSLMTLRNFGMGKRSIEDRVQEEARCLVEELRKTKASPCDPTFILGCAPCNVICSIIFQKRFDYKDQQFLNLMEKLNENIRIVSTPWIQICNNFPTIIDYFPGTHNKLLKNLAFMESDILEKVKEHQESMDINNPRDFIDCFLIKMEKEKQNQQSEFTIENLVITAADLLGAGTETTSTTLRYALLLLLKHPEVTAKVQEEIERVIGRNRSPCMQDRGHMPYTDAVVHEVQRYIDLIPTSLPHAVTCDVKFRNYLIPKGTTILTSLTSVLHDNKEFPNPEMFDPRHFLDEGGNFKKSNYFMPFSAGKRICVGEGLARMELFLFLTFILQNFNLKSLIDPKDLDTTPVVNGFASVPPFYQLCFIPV
CYP2C9, sequence (P11712 whole entry): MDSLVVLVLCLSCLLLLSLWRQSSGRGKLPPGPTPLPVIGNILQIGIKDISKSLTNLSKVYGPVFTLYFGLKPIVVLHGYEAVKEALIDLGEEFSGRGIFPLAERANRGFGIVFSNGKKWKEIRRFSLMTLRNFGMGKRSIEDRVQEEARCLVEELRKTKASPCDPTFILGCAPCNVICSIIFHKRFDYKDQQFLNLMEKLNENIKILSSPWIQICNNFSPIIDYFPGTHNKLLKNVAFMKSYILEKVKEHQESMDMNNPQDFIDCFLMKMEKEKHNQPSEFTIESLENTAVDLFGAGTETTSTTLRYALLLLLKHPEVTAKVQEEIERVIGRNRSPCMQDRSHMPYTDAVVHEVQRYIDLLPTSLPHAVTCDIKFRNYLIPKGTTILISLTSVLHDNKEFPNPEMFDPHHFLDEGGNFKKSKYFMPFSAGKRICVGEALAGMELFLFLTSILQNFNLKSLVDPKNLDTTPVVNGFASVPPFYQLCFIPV
hERG, sequence (Q12809 whole entry): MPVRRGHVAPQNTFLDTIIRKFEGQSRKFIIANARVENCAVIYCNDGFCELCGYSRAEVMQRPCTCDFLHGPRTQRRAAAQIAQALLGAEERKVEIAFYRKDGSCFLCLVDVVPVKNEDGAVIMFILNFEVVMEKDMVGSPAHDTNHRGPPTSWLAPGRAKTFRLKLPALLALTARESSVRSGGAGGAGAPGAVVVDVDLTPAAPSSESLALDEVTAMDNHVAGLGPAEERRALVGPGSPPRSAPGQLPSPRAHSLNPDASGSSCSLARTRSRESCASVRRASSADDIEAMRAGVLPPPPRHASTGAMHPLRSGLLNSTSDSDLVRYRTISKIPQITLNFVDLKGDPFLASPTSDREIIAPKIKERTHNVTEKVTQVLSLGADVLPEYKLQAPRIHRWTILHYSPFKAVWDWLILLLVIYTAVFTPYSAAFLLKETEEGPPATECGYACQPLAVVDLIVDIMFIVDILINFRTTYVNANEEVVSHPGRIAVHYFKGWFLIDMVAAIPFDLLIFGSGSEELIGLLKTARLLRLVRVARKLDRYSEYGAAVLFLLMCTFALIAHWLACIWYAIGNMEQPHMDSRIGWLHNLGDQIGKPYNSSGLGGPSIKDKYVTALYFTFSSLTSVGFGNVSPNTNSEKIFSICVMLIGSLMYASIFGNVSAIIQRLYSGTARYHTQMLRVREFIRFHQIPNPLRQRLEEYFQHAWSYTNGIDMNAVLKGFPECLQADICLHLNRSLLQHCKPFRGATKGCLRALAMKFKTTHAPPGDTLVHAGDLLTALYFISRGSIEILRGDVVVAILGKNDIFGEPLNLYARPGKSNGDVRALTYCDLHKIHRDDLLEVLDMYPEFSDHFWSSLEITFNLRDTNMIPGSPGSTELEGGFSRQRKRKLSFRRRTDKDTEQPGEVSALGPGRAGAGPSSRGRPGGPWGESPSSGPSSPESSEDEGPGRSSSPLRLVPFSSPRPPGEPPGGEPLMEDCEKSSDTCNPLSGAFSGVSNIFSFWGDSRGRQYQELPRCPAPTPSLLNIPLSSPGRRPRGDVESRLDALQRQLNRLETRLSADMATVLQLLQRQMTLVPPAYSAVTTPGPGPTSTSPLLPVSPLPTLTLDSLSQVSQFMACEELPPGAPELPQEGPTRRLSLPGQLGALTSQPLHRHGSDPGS
CYP3A4, sequence (P08684 whole entry): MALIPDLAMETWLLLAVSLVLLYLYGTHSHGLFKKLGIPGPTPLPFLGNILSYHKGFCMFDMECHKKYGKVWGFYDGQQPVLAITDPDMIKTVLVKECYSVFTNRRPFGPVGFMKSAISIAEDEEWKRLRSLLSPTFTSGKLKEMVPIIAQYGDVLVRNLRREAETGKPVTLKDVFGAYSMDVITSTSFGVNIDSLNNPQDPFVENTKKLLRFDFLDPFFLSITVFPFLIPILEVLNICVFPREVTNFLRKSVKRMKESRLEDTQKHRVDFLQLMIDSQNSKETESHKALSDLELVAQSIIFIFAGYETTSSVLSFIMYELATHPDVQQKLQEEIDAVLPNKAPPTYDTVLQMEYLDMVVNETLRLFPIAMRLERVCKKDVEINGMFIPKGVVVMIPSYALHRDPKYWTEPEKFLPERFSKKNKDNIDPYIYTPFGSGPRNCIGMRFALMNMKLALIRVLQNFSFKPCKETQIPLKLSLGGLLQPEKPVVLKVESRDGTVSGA

Row | Compound | IC50 (CYP2D6) [µM] | IC50 (CYP2C9) [µM] | IC50 (CYP1A2) [µM] | IC50 (CYP2C19) [µM] | IC50 (CYP3A4) [µM] | inhibition at 60 min, 30 µM (hERG) [%] | hepatocyte CLint at 1 μM [1] [µL/min/1e6 cells] | half-life at 1 μM [1] [h] | IC50 (CYP1A2; human, 10 min, pH 7.4) [µM]
1 | CC1(O)CCC(NS(=O)(=O)c2ccc(-c3ccc(F)cc3F)cc2)CC1 (stereo not shown) [ABD899, reference compound] | 45.3 | 3.9 | > 25 | 7.3 | 21.6 | – | – | – | –
2 | CC(=O)N1CCC(CS(=O)(=O)c2ccc(-c3ccc(F)cc3F)cc2)CC1 [NASMP-01, 1-(4-(((2′,4′-Difluoro-[1,1′-biphenyl]-4-yl)sulfonyl)methyl)piperidin-1-yl)ethan-1-one] | > 50 | > 50 | – | > 50 | > 50 | 14 | < 3 | > 7.67 | > 50
3 | CC(=O)N1CCC(CS(=O)(=O)c2ccc(-c3ccc(C#N)cc3Cl)cc2)CC1 [NASMP-05, 4′-(((1-Acetylpiperidin-4-yl)methyl)sulfonyl)-2-chloro-[1,1′-biphenyl]-4-carbonitrile] | > 50 | > 50 | – | > 50 | > 50 | 23 | – | – | > 50
4 | CC(=O)N1CCC(CS(=O)(=O)c2ccc(-c3ccc(Cl)cc3C#N)cc2)CC1 [NASMP-06, 4′-(((1-Acetylpiperidin-4-yl)methyl)sulfonyl)-4-chloro-[1,1′-biphenyl]-2-carbonitrile] | > 50 | 42.7 | – | > 50 | > 50 | 35 | – | > 1 | > 50
5 | CC(=O)N1CCC(CS(=O)(=O)c2ccc(-c3ccc(C(F)(F)F)cc3F)cc2)CC1 [NASMP-07, 1-(4-(((2′-Fluoro-4′-(trifluoromethyl)-[1,1′-biphenyl]-4-yl)sulfonyl)methyl)piperidin-1-yl)ethan-1-one] | > 50 | 19.6 | – | 36.4 | > 50 | 79 | 1.1 | > 1 | > 50
6 | CC(=O)N1CCC(CS(=O)(=O)c2ccc(-c3c(F)cccc3F)cc2)CC1 [NASMP-09, 1-(4-(((2′,6′-Difluoro-[1,1′-biphenyl]-4-yl)sulfonyl)methyl)piperidin-1-yl)ethan-1-one] | > 50 | > 50 | – | 17.8 | 44.5 | 7 | < 3.4 | > 6.88 | > 50
7 | CC(=O)N1CCC(CS(=O)(=O)c2ccc(-c3ccc(F)cc3F)cc2C(F)(F)F)CC1 [NASMP-12, 1-(4-(((2′,4′-Difluoro-3-(trifluoromethyl)-[1,1′-biphenyl]-4-yl)sulfonyl)methyl)piperidin-1-yl)ethan-1-one] | 45.4 | 15.4 | – | > 50 | > 50 | 35 | – | – | > 50
8 | CCC(=O)N1CCC(CS(=O)(=O)c2ccc(-c3ccc(F)cc3F)cc2)CC1 [NASMP-15, 1-(4-(((2′,4′-Difluoro-[1,1′-biphenyl]-4-yl)sulfonyl)methyl)piperidin-1-yl)propan-1-one] | > 50 | 21.5 | – | > 50 | > 50 | 45 | – | > 1 | > 50
